From patent publication US9073944B2, “Cyclic diaminopyrimidine derivatives” (Merck Patent GmbH, priority 2012, dated 2015) come the findings set out here.

In experiment [1] the target is SYK (Homo sapiens, UniProt P43405). Briefly: SYK flash plate assay. It is filed as biochemical. The conditions noted are these: class symbols; read-out: IC50 SYK (enzyme assay). Here is the method: The kinase assay is performed either as 384-well Flashplate assay (for e.g. Topcount measurement) or as 384-well Image-Flashplate assay (for LEADseeker measurement). • 2.5 nM SYK, 400 nM Biotin-Aha-Aha-KEDPDYEWPSAKK • and 10 μM ATP (spiked with 0.3 μCi 33P-ATP/well) are incubated in a total volume of 50 μl (60 mM Hepes, 10 mM MgCl2, 1.2 mM Dithiothreitol, 0.02% Brij35, 0.1% BSA, pH 7.5) with or without test compound for 1 hours at 30° C. The reaction is stopped with 25 μl 200 mM EDTA. After 30 Min at 30° C. the liquid is removed and each well washed thrice with 100 μl 0.9% sodium chloride solution. Non-specific reaction is determined in presence of 0.1 μM Staurosporine. Radioactivity is measured with Topcount (when using Flashplates) or with LEADseeker (when using Image-Flashplates) respectively. Results (e.g. IC50-values) are calculated with program tools provided by the IT-department (e.g. Symyx Assay Explorer, Genedata Screener). In vivo Assays CIA

Experiment [2] deals with GCN2 (Homo sapiens, UniProt Q9P2K8). Briefly: GCN2 enzyme assay (TR-FRET Lanthascreen, GFP-eIF2alpha substrate). It is filed as biochemical. The note with it: class symbols. Here is the method:
APCI-MS (atmospheric pressure chemical ionisation-mass spectrometry) (M+H)^+. • Mass spectrometry (MS): EI (electron impact ionisation) M^+ • FAB (fast atom bombardment) (M+H)^+ • ESI (electrospray ionisation) (M+H)^+ • m.p.=melting point • LCMS Method: • Column: ZORBAX SB-C8 30*4.6 mm, 3.5 um • Mobile Phase A: Water+0.03% TFA • Mobile Phase B: ACN+0.05% TFA • Gradient: 5-95% B in 2.5 minutes • Flow: 2.0 mL/min • Wavelength: UV1:220 nm, UV2:254 nm • Mass Scan: 100-900 Da GCN2: Assay Principle & Conditions
This assay can quantificate the activity of the serin kinase GCN2 (general control non-derepressible-2).
This kinase is involved in the stress metabolism of cells. It is activated upon starvation (amino acid depletion). Its natural substrate is eIF2a (eukaryotic initiation factor 2 alpha subunit), a translation factor, which gets activated (phosphorylated) by GCN2 in case of an amino acid bottleneck in the cells. This in turn leads to a halt of the protein synthesis. Inhibition of GCN2 results in stopping this mechanism: The cell can not stop protein production upon “starvation” stress.
The assay is run in two steps: the enzymatic reaction and the detection step. In the first step GCN2 is incubated with 10 μM ATP and 80 nM of the GFP-labelled substrate eIF2alpha at room temperature.
The enzymatic reaction is stopped by addition of EDTA. The amount of phosphorylated eIF2alpha is determined by TR-FRET (Lanthascreen): A complex is formed consisting of antibody and GFP labelled phospho-eIF2a, which allows a FRET upon exitation at 340 nm.
The GCN2-activity is directly proportional to the ratio of fluorescence units at the emission wavelength 520 nm (phosphopeptide-sensitive wavelength=emission of GFP) to the units at 495 nm (reference wavelength=emission of Terbium-chelate).
Final Concentrations in the Enzymatic Reaction
A general note: In TR-FRET formats the signal depends on donor and acceptor labels being close together.

Chain of GCN2 (Q9P2K8 whole entry, species assumed): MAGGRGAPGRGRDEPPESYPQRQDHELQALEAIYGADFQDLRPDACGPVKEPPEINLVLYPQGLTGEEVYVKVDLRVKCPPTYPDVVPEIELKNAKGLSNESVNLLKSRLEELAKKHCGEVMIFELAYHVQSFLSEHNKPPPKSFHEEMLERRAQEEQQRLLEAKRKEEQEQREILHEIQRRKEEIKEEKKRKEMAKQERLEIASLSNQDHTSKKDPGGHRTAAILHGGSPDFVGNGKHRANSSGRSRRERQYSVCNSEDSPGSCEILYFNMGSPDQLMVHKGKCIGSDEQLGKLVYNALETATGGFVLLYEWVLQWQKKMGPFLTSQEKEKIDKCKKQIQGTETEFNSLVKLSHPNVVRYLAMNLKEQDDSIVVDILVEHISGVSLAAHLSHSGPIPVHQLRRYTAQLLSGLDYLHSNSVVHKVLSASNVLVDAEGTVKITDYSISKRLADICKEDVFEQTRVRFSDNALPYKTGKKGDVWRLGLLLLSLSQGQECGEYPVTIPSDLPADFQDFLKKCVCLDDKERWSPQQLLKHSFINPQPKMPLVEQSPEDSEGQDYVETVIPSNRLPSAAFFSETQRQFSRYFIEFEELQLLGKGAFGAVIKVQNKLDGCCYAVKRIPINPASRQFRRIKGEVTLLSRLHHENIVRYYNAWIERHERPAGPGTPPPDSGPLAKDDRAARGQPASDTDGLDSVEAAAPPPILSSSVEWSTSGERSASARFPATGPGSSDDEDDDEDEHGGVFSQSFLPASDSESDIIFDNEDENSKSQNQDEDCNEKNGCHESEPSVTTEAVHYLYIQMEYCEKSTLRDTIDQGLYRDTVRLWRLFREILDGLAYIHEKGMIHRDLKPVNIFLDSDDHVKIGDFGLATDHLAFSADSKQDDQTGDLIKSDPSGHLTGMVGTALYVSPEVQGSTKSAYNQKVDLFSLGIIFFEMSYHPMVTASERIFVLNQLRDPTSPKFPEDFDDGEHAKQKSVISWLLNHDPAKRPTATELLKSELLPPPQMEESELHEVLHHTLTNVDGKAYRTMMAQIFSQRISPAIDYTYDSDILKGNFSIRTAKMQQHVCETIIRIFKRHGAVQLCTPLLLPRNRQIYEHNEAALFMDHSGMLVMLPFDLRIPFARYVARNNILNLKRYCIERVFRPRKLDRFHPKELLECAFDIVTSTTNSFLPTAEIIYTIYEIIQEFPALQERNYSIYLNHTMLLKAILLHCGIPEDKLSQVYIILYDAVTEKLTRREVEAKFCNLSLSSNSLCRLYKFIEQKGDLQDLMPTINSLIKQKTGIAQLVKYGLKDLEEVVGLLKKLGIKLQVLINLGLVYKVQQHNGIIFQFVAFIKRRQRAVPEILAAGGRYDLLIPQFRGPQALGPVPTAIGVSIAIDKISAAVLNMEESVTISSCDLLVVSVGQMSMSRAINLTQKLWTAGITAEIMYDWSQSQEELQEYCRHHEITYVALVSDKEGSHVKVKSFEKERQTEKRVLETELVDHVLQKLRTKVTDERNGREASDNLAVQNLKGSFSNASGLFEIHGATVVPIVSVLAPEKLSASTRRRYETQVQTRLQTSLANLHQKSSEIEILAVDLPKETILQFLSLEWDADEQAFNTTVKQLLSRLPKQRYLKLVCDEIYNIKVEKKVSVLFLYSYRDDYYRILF

As a reminder, the IC50 is the concentration that inhibits the measured activity by half. On to `COc1cc2ccc1OCCCNC(=O)C1(C)Oc3ccc(cc3NC1=O)Nc1nc(ncc1F)N2` (stereo not drawn) [Compound B11], for which the IC50 lay in the range of 3 to 50 µM in experiment [1] and 0.3 to 3 µM in experiment [2].

As to `CC12Oc3ccc(cc3NC1=O)Nc1nc(ncc1F)Nc1cccc(c1)NC(=O)N1CCC[C@H]1C(=O)NCCCNC2=O` (stereo partly drawn) [Compound B17], in experiment [1], the IC50 lay in the range of 3 to 50 µM.

On to `COc1ccc2cc1Nc1ncc(F)c(n1)Nc1ccc3c(c1)NC(=O)C(C)(O3)C(=O)NCCNC2=O` (stereo not drawn) [Compound B19], for which the IC50 in experiment [1] lay in the range of 0.3 to 3 µM.

Take `COc1cc2cc(c1)NC(=O)CN(C)C(=O)C1(C)Oc3ccc(cc3NC1=O)Nc1nc(ncc1F)C2` (stereo not drawn) [Compound B2]: in experiment [1], the IC50 was under 0.3 µM.

With `COc1cc2cc(c1)C(=O)NCCNC(=O)C1(C)Oc3ccc(cc3NC1=O)Nc1nc(ncc1F)N2` (stereo not drawn) [Compound B23], the IC50 in experiment [1] and in experiment [2] was 0.3 to 3 µM in each case.

In the case of `CC12Oc3ccc(cc3NC1=O)Nc1nc(ncc1F)Nc1cccc(c1)CCNC2=O` (stereo not drawn) [Compound 12], the IC50 in experiment [1] and in experiment [2] was 3 to 50 µM each time.

As for `COc1cc2ccc1OCCNC(=O)[C@H](Cc1ccccc1)NC(=O)[C@]1(C)Oc3ccc(cc3NC1=O)Nc1nc(ncc1F)N2` [Compound B25], the IC50 in experiment [1] is 0.3 to 3 µM.

For `COc1cc2ccc1OCCCCNC(=O)C1(C)Oc3ccc(cc3NC1=O)Nc1nc(ncc1F)N2` (stereo not drawn) [Compound B12], the IC50 in experiment [1] was in the range of 3 to 50 µM; in experiment [2], 0.3 to 3 µM.

In the case of `CN1CC(=O)Nc2cccc(c2)Nc2ncc(F)c(n2)Nc2ccc3c(c2)NC(=O)[C@](C)(O3)C1=O` (single isomer, unassigned) [Compound 17], the results for the IC50 in experiment [1] and in experiment [2] were under 0.3 µM and 0.3 to 3 µM, respectively.

Take `COc1cc2ccc1OCCCCNC(=O)[C@@H](Cc1ccccc1)NC(=O)[C@]1(C)Oc3ccc(cc3NC1=O)Nc1nc(ncc1F)N2` [Compound B20]: the half-maximal inhibitory concentration (IC50) is 0.3 to 3 µM in experiment [1] and 3 to 50 µM in experiment [2].

For `CN1CC(=O)N(C)c2cccc(c2)Nc2ncc(F)c(n2)Nc2ccc3c(c2)NC(=O)C(C)(O3)C1=O` (stereo not drawn) [Compound B1], the IC50 in experiment [1] was 3 to 50 µM.

Regarding `CC12CCOC(=O)NCc3cccc(c3)Nc3ncc(F)c(n3)Nc3ccc(c(c3)NC1=O)O2` (stereo not drawn) [Compound 9], the IC50 in experiment [1] is under 0.3 µM.

Compound `CC12Oc3ccc(cc3NC1=O)Nc1nc(ncc1F)Nc1cccc(c1)S(=O)(=O)NCCC(=O)NCCCNC2=O` (stereo not drawn) [Compound B18] registered a concentration for half-maximal inhibition (IC50) in experiment [2] of 0.3 to 3 µM.

Take `CN1CC(=O)Nc2cccc(c2)Nc2ncc(F)c(n2)Nc2ccc3c(c2)NC(=O)[C@@](C)(O3)C1=O` (single isomer, unassigned) [Compound 16]: the half-inhibitory concentration (IC50) in experiment [1] lay in the range of 0.3 to 3 µM; in experiment [2] it was 3 to 50 µM.

Consider `CC12CCOC(=O)Nc3cccc(c3)Nc3ncc(F)c(n3)Nc3ccc(c(c3)NC1=O)O2` (stereo not drawn) [Compound 6], for which the IC50 in experiment [1] was under 0.3 µM.

As to `COc1cc2c3cc1Nc1ncc(F)c(n1)Nc1ccc4c(c1)NC(=O)C(C)(O4)C(=O)NCCN(C)CC(=O)N3CC2` (stereo not drawn) [Compound B7], the IC50 in experiment [1] was 3 to 50 µM.

Take `CN1CC(=O)Nc2cccc(c2)Nc2ncc(F)c(n2)Nc2ccc3c(c2)NC(=O)C(C)(O3)C1=O` (racemic) [Compound 15]: the figures for the half-inhibitory concentration (IC50) in experiment [1] and in experiment [2] were under 0.3 µM and 0.3 to 3 µM, respectively.

In the case of `CC12Oc3ccc(cc3NC1=O)Nc1nc(ncc1F)Nc1ccc(cc1)OCCCC(=O)NCCCNC2=O` (stereo not drawn) [Compound B16], in experiment [1], the IC50 was in the range of 0.3 to 3 µM.

Take `CC12Oc3ccc(cc3NC1=O)Nc1nc(ncc1F)Nc1ccc(cc1)OCCC(=O)NCCCNC2=O` (stereo not drawn) [Compound B15]: the IC50 in experiment [1] fell in the range of 0.3 to 3 µM.
